In paper PMC8305076, “Comprehensive Evaluation of Biological Effects of Pentathiepins on Various Human Cancer Cell Lines and Insights into Their Mode of Action” (International Journal of Molecular Sciences, 2021):

Tests used:
Format in all cases: cell-based, human
[1] = system: Siso; assay: alkaline Comet assay; conditions: 25 µM pentathiepin or 20 µM H2O2, 15 min, 0 °C
Source text: Next, the potential of the pentathiepins 1–6 to damage nuclear DNA was investigated in the cell lines HAP-1, HAP-1.KO.GPx1, and Siso, with different expression levels of GPx1 and CAT (see Figure 7), by Comet Assay (Figure 12) with representative images in the Supplementary Materials (Figure S48).
With this assay, the intensity of DNA damage can be assessed on the level of a single cell, in case of the alkaline version detecting both single and double strand breaks as well as alkali-labile sites. The method presented here is an adaptation of the protocol published by Olive and Banath and based on the distinct electrophoretic mobility of damaged and intact genomic DNA. The latter has a low mobility; does thus not migrate in the electric field; and remains in a nucleoid shape after lysis, referred to as the comet head. In contrast, when strand breaks are created, free charged ends emerge and increase the electrophoretic mobility, prompting DNA segments to drift away from the comet head, thereby forming the so-called comet tail. As descriptor of still intact genomic DNA, the percentage of DNA in the comet head was selected. Per condition, 50,000 cells of either Siso, HAP-1, or HAP-1.KO.GPx1 were diluted in 1 mL of PBS and subsequently treated with either a 1% DMF aqueous solution as negative control, 20 µM of H2O2 as positive control, or 25 µM of pentathiepin for 15 min on ice to impair intracellular DNA repair mechanisms. Afterwards, 400 µL of the cell suspension was blended with 1.2 mL of a 1% low melting point agarose solution (40 °C) and smoothly distributed on agarose-precoated glass slides. Polymerization was finished after 3 min at RT, and the slides were horizontally submerged in alkaline lysis buffer (1.2 M NaCl, 0.1% N-lauryl-sarcosinate, 0.1 M Na-EDTA, 0.26 M NaOH) before storing them at 4 °C overnight. The slides were then rinsed three times in rinse/electrophoresis buffer (0.002 M Na-EDTA, 0.03 M NaOH) before electrophoretic separation was performed for 25 min at 0.6 V/cm. A neutralization step by adding distilled water was followed by staining the slides with 250 µL of an aqueous 10 µg/mL PI solution for 20 min. For visualization and image capturing, a DMi8 fluorescent microscope and LASX software (Leica Microsystems, Wetzlar, Germany) were used, and the comets scored with the help of CometScore2.0 (rexhoover.com). Per condition and replicate, at least 100 comets were analyzed to calculate a mean level of damage.

[2] = system: YAPC; assay: DCFDA flow cytometric ROS assay, acute; conditions: 25 µM, 15 min
Method: According to the hypothesized mechanism of action (see Figure 3), pentathiepins can create oxidative stress via generation of reactive sulfur precursors. We have previously reported that a representative pentathiepin can increase the intracellular levels of ROS in two cancer cell lines. This effect was thus further evaluated with the new compounds in seven cell lines (Figure 8). The cells were incubated for 15 min with 25.0 µM pentathiepin and subsequently analyzed by using the intracellular ROS sensor 2′,7′-dichlorodihydrofluorescein diacetate (DCFDA) by flow cytometry.
In order to quantify intracellular ROS, we performed a flow cytometric assay based on the ROS-sensor 2′,7′-dichlorofluorescein diacetate (DCFDA). For acute effects of pentathiepins on intracellular ROS levels, the cells were stained with DCFDA first and subsequently incubated with 25 µM of compound for 10 min. […] Per condition, 250,000 cells were seeded in 2 mL of medium per well of a 6-well plate and allowed to adhere overnight. For measurement of acute ROS, the cells were stained with 1 mL of a 20 µM DCFDA-PBS solution for 30 min under standard incubation conditions. Afterwards, the solution was discarded, and the monolayer washed twice with 1 mL of PBS before 3 mL of medium containing 25 µM of pentathiepin was added for 10 min at 37 °C. After removing the solution and washing again with PBS, the cells were detached by using 0.5 mL of a diluted trypsin/EDTA-PBS solution (25%) and harvested with 1 mL of culture medium by carefully rinsing the wells. The cell suspension was transferred to 1.5 mL tubes, centrifuged for 5 min at 500× g, and washed with 1 mL of PBS. After removing the supernatant, each pellet was resuspended in 0.5 mL of PBS for measurement via the MACSquant Analyzer 10 at λEx/Em = 488/530 nm. Relative ROS levels resulting from treatment with pentathiepin were calculated by relating the fluorescence intensity of treated samples to the negative control. For the experiments covering periods of 24 and 48 h, the cells were incubated with the compounds first and stained with DCFDA afterwards. To assess the influence of additional GSH, we included 3 or 30 µM GSH to the medium containing 25 µM of pentathiepin, and the protocol was followed as described.

[3] = system: A2780; assay: cell cycle analysis (PI staining); conditions: IC90, 48 h
Method: The potent cytotoxicity and the potential to inhibit the proliferation of cancer cells accompanied by DNA damage effects raised the question as to whether cell cycle progression might be affected as a result of treatment with pentathiepins.
Cells were harvested by trypsinization, collected in 1.5 mL tubes, and washed twice with PBS by centrifuging for 5 min at 500× g and discarding the supernatant after every step. For fixation, 500 µL of ice-cold ethanol (70%) was added dropwise under vortexing with a subsequent incubation on ice for 30 min. Then, the cells were centrifuged for 10 min at 4000 rpm and 4 °C, the supernatant was removed, and the cells were resuspended in 500 µL of PBS containing 25 µg/mL of PI and 100 µg/mL of RNase. The staining solution was incubated for 30 min, and the cell suspension was measured at λEx/Em = 488/655–730 nm using a MACSquant Analyzer 10 (Miltenyi Biotec, Teterow, Germany).

In the case of `CCOc1c2c(c3ccc(C(=O)N4CCCCC4)cn13)SSSSS2` [Compound 2, (6-Ethoxy-[1,2,3,4,5]pentathiepino[6,7-a]indolizin-9-yl)(piperidinyl)methanone], the “intact genomic DNA (Comet head)” value [1] is reported as 30%.
In the case of `CCOc1c2c(c3ccc(C(=O)N4CCN(C(=O)c5ccc(F)cc5)CC4)cn13)SSSSS2` [Compound 5, (6-Ethoxy-[1,2,3,4,5]pentathiepino[6,7-a]indolizin-9-yl)(4-(4-fluorobenzoyl)piperazinyl)methanone], the “intracellular ROS levels” value [2] is reported as “the only increase was monitored after incubation with 5”.
`CCOc1c2c(c3ccc(C(=O)N4CCN(S(=O)(=O)c5ccc(C)cc5)CC4)cn13)SSSSS2` [Compound 6, (6-Ethoxy-[1,2,3,4,5]pentathiepino[6,7-a]indolizin-9-yl)(4-tosylpiperazinyl)methanone] was tested, and the “relative amount of sub G1-phase cells” value [3] was 30%.
